Laboratory results from patent publication US20260216115A1, “TRETINOIN-CONTAINING COMPOSITION, PREPARATION METHOD AND USE THEREOF” (NANJING INDETEK LABORATORY CO., LTD., priority 2022, published 2026).

How the values were obtained:
[1] = Water solubility/water dilution stability of tretinoin complexes; format: physicochemical; conditions: water added until the solution appeared turbid
Description: Weighing was performed, and calculation was performed to obtain the limiting water content of the complexes.

[2] = Complex formation at different molar ratios, state at room temperature; format: physicochemical
Description: Referring to the preparation process in 1.2.1, complexes were prepared using tretinoin and diethanolamine at different ratios (as shown in the table below).
Referring to the preparation process in 1.2 in Example 1, diethanolamine was replaced with triethanolamine, and complexes were prepared using tretinoin and triethanolamine at different ratios (as shown in the table below).

[3] = Liquid nitrogen freezing test; format: physicochemical; conditions: frozen about 1 min in liquid nitrogen, rewarmed to room temperature (about 22° C.)
Description: After freezing for about 1 min, the sample was taken out, yielding a reddish-brown transparent solid (hard and brittle). […] The experimental process was as follows: freezing with the spoon, fragmenting, and then melting

[4] = Anti-solvent addition test; format: physicochemical; conditions: room temperature, about 4 days
Description: The corresponding volume of good solvent was added to an appropriate amount of 2 [DEA][RA] to obtain a clear solution. If there were two corresponding anti-solvents, the clear solution was divided into two parts. At room temperature (about 22° C.), the anti-solvent was slowly added to the clear solution with stirring until solid precipitation was observed (the maximum volume of anti-solvent added was 1.5 mL). If the solid precipitation was observed, the addition of anti-solvent was stopped. After about 4 days of stirring at room temperature, a clear solution was obtained or oiling-out phenomenon was observed, without solid form substance obtained.

[5] = Dynamic moisture sorption (DVS) with PLM before and after; format: physicochemical
[6] = Compatibility of gel matrix and complex; format: physicochemical; conditions: 0.17% (0.1% in terms of RA) added to the Carbopol 980 gel matrix
[7] = Solubility of the complex in different medium systems (oily mediums); format: physicochemical
Description: 6.1 Study on Solubility of the Tretinoin-Alcoholamine Compound Complex in Different Medium Systems

[8] = Crystallization induction: cooling test; format: physicochemical; conditions: 3 days
Description: About 40 mg of 2 [DEA][RA] was dissolved in the respective solvent at 50° C., a clear solution was obtained and divided equally in 2 groups. After cooling according to the respective procedure, and equilibrating at low temperature for 3 days, no solid form substance was obtained.

[9] = Differential scanning calorimetry (DSC, mDSC); format: physicochemical
[10] = 2020 edition of Chinese Pharmacopoeia (Part II); cited from earlier work
[11] = tretinoin-diethanolamine complexes, molar ratio [DEA]:[RA] 2:1 to 10:1
[12] = tretinoin-triethanolamine complexes, molar ratio TEA:RA 7:1 to 10:1

## CC1=C(/C=C/C(C)=C/C=C/C(C)=C/C(=O)O)C(C)(C)CCC1.CC1=C(/C=C/C(C)=C/C=C/C(C)=C/C(=O)O)C(C)(C)CCC1.OCCNCCO.OCCNCCO.OCCNCCO.OCCNCCO.OCCNCCO [2.5[DEA][RA]]
[1]
  Maximum water content (water dilution stability): 92.5%
[2]; [11]
  State at room temperature: Reddish-brown clear liquid

## CC1=C(/C=C/C(C)=C/C=C/C(C)=C/C(=O)O)C(C)(C)CCC1.OCCNCCO.OCCNCCO [2[DEA][RA]]
[3]
  Liquid nitrogen freezing test result upon rewarming: the sample melted immediately
[1]
  Maximum water content (water dilution stability): 91.4%
[4]; test-A, good solvent DMSO, anti-solvent ACN 1.5 mL
  Anti-solvent addition test results: Clear
[4]; test-B1, good solvent n-propanol, anti-solvent ACN 1.5 mL
  Anti-solvent addition test results: Clear
[4]; test-B2, good solvent n-propanol, anti-solvent n-heptane 1.5 mL
  Anti-solvent addition test results: Clear
[4]; test-D1, good solvent THF, anti-solvent ACN 1.5 mL
  Anti-solvent addition test results: Clear
[4]; test-E1, good solvent IPA, anti-solvent ACN 1.5 mL
  Anti-solvent addition test results: Clear
[5]; 25° C., 0% RH-95% RH-0% RH
  Hygroscopicity (DVS): certain hygroscopic properties
[5]; room temperature
  Crystalline particles by PLM before and after DVS: no crystalline particles
[6]
  Compatibility of complex with gel matrix: precipitation of yellow solids
[7]; Isopropyl myristate
  Solubility in oily medium: Insoluble
[7]; Laurocapram
  Solubility in oily medium: Insoluble
[7]; Medium-chain triglyceride
  Solubility in oily medium: Insoluble
[7]; Soybean oil
  Solubility in oily medium: Insoluble
[8]; test-A1, n-propanol, 50° C.→5° C.
  Cooling test results: Clear
[8]; test-A2, n-propanol, 50° C.→−20° C.
  Cooling test results: Clear
[8]; test-C1, 1,4-dioxane, 50° C.→5° C.
  Cooling test results: Clear
[8]; test-C2, 1,4-dioxane, 50° C.→−20° C., *melting immediately upon taking out
  Cooling test results: Frozen, yellow opaque*
[8]; test-D1, DMSO, 50° C.→5° C.
  Cooling test results: Clear
[9]; −25° C. to 25° C.
  mDSC glass transition temperature: no glass transition temperature is observed
[9]; −25° C. to 40° C.
  DSC exothermic or endothermic signals: no exothermic or endothermic signals
[2]; [11]
  State at room temperature: Reddish-brown clear liquid

## CC1=C(/C=C/C(C)=C/C=C/C(C)=C/C(=O)O)C(C)(C)CCC1.OCCNCCO.OCCNCCO.OCCNCCO [3[DEA][RA]]
[1]
  Maximum water content (water dilution stability): 93.7%
[2]; [11]
  State at room temperature: Reddish-brown clear liquid

## CC1=C(/C=C/C(C)=C/C=C/C(C)=C/C(=O)O)C(C)(C)CCC1.OCCNCCO.OCCNCCO.OCCNCCO.OCCNCCO [4[DEA][RA]]
[1]
  Maximum water content (water dilution stability): 94.1%
[2]; [11]
  State at room temperature: Reddish-brown clear liquid

## CC1=C(/C=C/C(C)=C/C=C/C(C)=C/C(=O)O)C(C)(C)CCC1.OCCNCCO.OCCNCCO.OCCNCCO.OCCNCCO.OCCNCCO [5[DEA][RA]]
[2]; [11]
  State at room temperature: Reddish-brown clear liquid

## CC1=C(/C=C/C(C)=C/C=C/C(C)=C/C(=O)O)C(C)(C)CCC1.OCCNCCO.OCCNCCO.OCCNCCO.OCCNCCO.OCCNCCO.OCCNCCO [6[DEA][RA]]
[2]; [11]
  State at room temperature: Reddish-brown clear liquid

## CC1=C(/C=C/C(C)=C/C=C/C(C)=C/C(=O)O)C(C)(C)CCC1.OCCNCCO.OCCNCCO.OCCNCCO.OCCNCCO.OCCNCCO.OCCNCCO.OCCNCCO [7[DEA][RA]]
[2]; [11]
  State at room temperature: Reddish-brown clear liquid

## CC1=C(/C=C/C(C)=C/C=C/C(C)=C/C(=O)O)C(C)(C)CCC1.OCCNCCO.OCCNCCO.OCCNCCO.OCCNCCO.OCCNCCO.OCCNCCO.OCCNCCO.OCCNCCO [8[DEA][RA]]
[2]; [11]
  State at room temperature: Reddish-brown clear liquid

## CC1=C(/C=C/C(C)=C/C=C/C(C)=C/C(=O)O)C(C)(C)CCC1.OCCN(CCO)CCO.OCCN(CCO)CCO.OCCN(CCO)CCO.OCCN(CCO)CCO.OCCN(CCO)CCO.OCCN(CCO)CCO.OCCN(CCO)CCO.OCCN(CCO)CCO [8[TEA][RA]]
[2]; [12]
  State at room temperature: Reddish-brown clear liquid
[2]; tretinoin-triethanolamine complexes, molar ratio TEA:RA 7:1 to 10:1, listed as 8 [TEA][RA]
  State at room temperature: reddish-brown transparent liquid

## CC1=C(/C=C/C(C)=C/C=C/C(C)=C/C(=O)O)C(C)(C)CCC1.OCCNCCO.OCCNCCO.OCCNCCO.OCCNCCO.OCCNCCO.OCCNCCO.OCCNCCO.OCCNCCO.OCCNCCO [9[DEA][RA]]
[2]; [11]
  State at room temperature: Reddish-brown clear liquid

## CC1=C(/C=C/C(C)=C/C=C/C(C)=C/C(=O)O)C(C)(C)CCC1.OCCN(CCO)CCO.OCCN(CCO)CCO.OCCN(CCO)CCO.OCCN(CCO)CCO.OCCN(CCO)CCO.OCCN(CCO)CCO.OCCN(CCO)CCO.OCCN(CCO)CCO.OCCN(CCO)CCO [9[TEA][RA]]
[2]; [12]
  State at room temperature: Reddish-brown clear liquid

## CC1=C(/C=C/C(C)=C/C=C/C(C)=C/C(=O)O)C(C)(C)CCC1.OCCNCCO.OCCNCCO.OCCNCCO.OCCNCCO.OCCNCCO.OCCNCCO.OCCNCCO.OCCNCCO.OCCNCCO.OCCNCCO [10[DEA][RA]]
[2]; [11]
  State at room temperature: Reddish-brown clear liquid

## CC1=C(/C=C/C(C)=C/C=C/C(C)=C/C(=O)O)C(C)(C)CCC1.OCCN(CCO)CCO.OCCN(CCO)CCO.OCCN(CCO)CCO.OCCN(CCO)CCO.OCCN(CCO)CCO.OCCN(CCO)CCO.OCCN(CCO)CCO.OCCN(CCO)CCO.OCCN(CCO)CCO.OCCN(CCO)CCO [10[TEA][RA]]
[2]; [12]
  State at room temperature: Reddish-brown clear liquid

## CC1=C(/C=C/C(C)=C/C=C/C(C)=C/C(=O)O)C(C)(C)CCC1 [tretinoin]
[10]
  Solubility in water: extremely insoluble in water
